According to ChEMBL document CHEMBL1134051, “Synthesis and biological activity of the 1alpha,25-dihydroxyvitamin D3 diastereomer with unnatural configuration at the rings C/D side-chain moiety” (2001):

Experiments:
Mus musculus = test: Dose required to induce hypercalcemia after administration in mice; assay type: functional
[1] = Dose required to inhibit proliferation of human peripheral blood mononuclear cells (PMBC); assay type: functional
HL-60 = test: Dosage required for differentiation of HL-60 cells to monocytes; assay type: functional, Homo sapiens

Structure (SMILES)	Dose (Mus musculus) [µg/kg]	Dose [1] [nM]	Dose (HL-60) [nM]
C=C1/C(=C\C=C2/CCC[C@]3(C)[C@@H]([C@H](C)CCCC(C)(C)O)CC[C@@H]23)C[C@@H](O)C[C@@H]1O [CALCITRIOL]	0.1		
C=C1/C(=C\C=C2/CCC[C@]3(C)[C@@H]2CC[C@H]3[C@@H](C)CCCC(C)(C)O)C[C@@H](O)C[C@@H]1O		100	100
